From patent US20060154952A1, “Pharmaceutical compositions comprising a combination of rapamycin or its derivative and pimecrolimus for the treatment of inflammation-and ummunologically-mediated diseases” (priority 2003, published 2006)

Tests used:
Format in all cases: in vivo
SCID-IBD mice [1] = test: SCID-IBD mouse model: loss of body weight; details: for effect on the loss of body weight: either compound alone at the dosages used (ASM 60, 30, 10 mg/kg/d; Compound A 0.1, 0.05 mg/kg/d), daily oral gavage
Source text: (§1) Female BALB/cJ and C.B.17 scid/scid mice (Fox Chase SCID®, Bomholtgaard, Denmark) are maintained in ventilated cage racks (Micro-vent type 84-II, Allentown Caging Equipment Co., Allentown, N.J., USA) under specific pathogen free conditions. The experimental procedures performed on the mice are authorized under the license number MA 1048/00 (Magistratabteilung No. 58, Amt der Wiener Landesregierung).
Briefly, CD4^+CD45RB^HI T lymphocytes are isolated from BALB/c mouse spleens by two-colour FACS-sorting through a live/dead gate and injected (2×10^5 cells/mouse, i.p.) into 6-9 week old female SCID mice. Negative control mice receive PBS i.p. and one such mouse is in each cage as a sentinel to monitor possible infections in this immunodeficient colony (PBS-mice).
SCID mice are first reconstituted with the CD4^+CD45RB^HI T cells and then treated with test compounds or vehicle as controls. As test compounds Compound A (RAD) and pimecrolimus (ASM) are used. 3 separate studies using different dosaging are carried out. In each study both compounds are administered alone and combined. […]
The body weight of each mouse is monitored throughout and at the end of the study mice are weighed.
All data presented as mean values are qualified by an s.e.m. value. The body weight data are analysed either by repeated measures analysis or by first finding the mean AUC and then applying an ANOVA multiple comparison test with Tukey post hoc correction. […] All other data are first analysed for normal distribution and then the ANOVA test for multiple comparison is applied. […]
The first visible symptom resulting from the transfer of disease causing CD4^+CD45RB^HI T cells to SCID mice is a severe loss of body weight, usually significant 21 days after transfer. […] In the 3 individual studies described herein, the mean % difference in body weight between the non-transferred and the vehicle-treated mice is calculated to be 16.3±1.8%.

SCID-IBD mice [2] = test: SCID-IBD mouse model: colon inflammation, histological severity score; details: for effect on colon inflammation (severity scores): low dose study: ASM 10 mg/kg/d, Compound A 0.05 mg/kg/d, alone or combined
Description: (§2) SCID mice are first reconstituted with the CD4^+CD45RB^HI T cells and then treated with test compounds or vehicle as controls. As test compounds Compound A (RAD) and pimecrolimus (ASM) are used. 3 separate studies using different dosaging are carried out. In each study both compounds are administered alone and combined. All 3 studies follow the same basic protocol of 4 groups of mice with one group receiving, by daily oral gavage, both vehicles (placebo), one group Compound A alone, one group ASM alone, and one group a combination of Compound A and pimecrolimus, from day 1 to day 29 after cell transfer.
A photographic picture is taken of the opened abdominal cavity and then a 1 cm long piece of the colon, just above the rectum, is fixed in formalin for histology.
(§3) Specimens are embedded in paraffin, sections (3 μm thick) are cut and stained with H & E. Four colour FACS analysis is performed on cell suspensions prepared from the blood, spleen and mesenteric lymph nodes (MLNS) of each mouse.
All data presented as mean values are qualified by an s.e.m. value. The body weight data are analysed either by repeated measures analysis or by first finding the mean AUC and then applying an ANOVA multiple comparison test with Tukey post hoc correction. Histology scores are represented as the mean severity score and compared with a Wilcoxon-Mann-Whitney test with exact p-values (StatXact-5 software) and Bonferroni post hoc correction factor. All other data are first analysed for normal distribution and then the ANOVA test for multiple comparison is applied. Statistical significance is taken as p<0.05.
The inflammation in the colon of SCID-IBD mice shares many features observed in lesional tissue of a Crohn's diseased colon. In order to examine the intestinal mucosal damage in SCID-IBD mice a histological examination of the colon sections was performed according to defined morphological parameters. The severe colitis associated with this model of IBD is characterized with a massive cellular infiltrate which in places involves nearly all of the submucosa. The infiltrate is mixed and comprised of lymphocytes, macrophages, neutrophils and some eosinophils. Also evident is the loss of crypt architecture, extensive elongation and epithelial hyperplasia. A severely inflamed colon section will also have crypt abscesses. Numeric scores were given as per the following scheme: a score of 0 to 3 is given for the leucocyte infiltrate where 1 is mild, 2 is moderate and 3 is a severe infiltrate including the submucosal layer. A score of 0 to 2 is given for Goblet cell depletion where 2 is given for a complete lack of the alcian blue staining, 0 is given for a normal amount of staining and 1 is intermediate. […] The maximum possible score is 8 and (PBS)-mice are scored 0. […]

SCID-IBD mice [3] = test: SCID-IBD mouse model: lymphocyte numbers (CD3+CD4+) by FACS in blood, spleen and MLN; details: for lymphocyte numbers in single treatment groups: study 2: ASM 30 mg/kg/d or Compound A 0.1 mg/kg/d administered alone
Description: as §2
Blood is also taken into 10 mM EDTA for preparation for FACS analysis.
The spleen and MLN are taken from each mouse, weighed and processed for FACS analysis of single cell suspensions.
as §3
Antibodies are obtained from Pharmingen. Cells which are double positive for CD3 and CD4 are counted as lymphocytes. Cells positive for Ly-6G (myeloid differentiation antigen) and negative for CD3 or CD4 are neutrophils (also their cellular characteristics (forward and side scatter) distinguishes them from the other cells).
The number of cells per sample is calculated from the total cell number in each cell suspension and the % of positively identified (samples analysed on a FACS Calibur® using CellQuest Pro® software) cells per sample.
(§4) The mean of these values for a group of mice can thus be calculated. To process some of the data further, the determined values are adjusted by subtracting the background value found in non-transferred mice and calculating the % reduction, or indeed increase, in mean cell number, relative to the placebo treated group.

SCID-IBD mice [4] = test: SCID-IBD mouse model: serum haptoglobin levels; details: for reduction of serum haptoglobin levels: ASM at 60 and 30 mg/kg/d, Compound A at 0.1 or 0.05 mg/kg/d, alone; for % reduction of serum haptoglobin: low dose study: ASM 10 mg/kg/d, Compound A 0.05 mg/kg/d, alone or combined
Description: as §2
The mice are anaesthetized at the end of the study and blood withdrawn via cardiac puncture for separation into serum which is frozen and stored at −80°.
as §4
(§5) The increasing T cell population with time also results in an increase in size of lymphoid organs which are otherwise comparatively small in the non-transferred SCID mouse. By day 28 post T cell transfer the inflammation is relatively consistent within a group of mice and this has been adopted as the shortest time where accurate effects of treatment with test compounds can be measured. The effects of a range of doses of Compound A and ASM as single preventative compounds are, in brief, comparative effective dose ranges are found to be from 30 to 100 mg/kg/d administration of ASM and 0.1 to 1 mg/kg/d of Compound A. In the present tests sub-maximal doses of each compounds are used and the effect of the single and combined treatment in the same study is determined.

SCID-IBD mice [5] = test: SCID-IBD mouse model: overall disease inhibition / effective dose; details: single treatment groups: ASM 60, 30, 10 mg/kg/d; Compound A 0.1, 0.05 mg/kg/d
Source text: as §1
Briefly, CD4^+CD45RB^HI T lymphocytes are isolated from BALB/c mouse spleens by two-colour FACS-sorting through a live/dead gate and injected (2×10^5 cells/mouse, i.p.) into 6-9 week old female SCID mice. […]
as §5

SMILES	effect on the loss of body weight (SCID-IBD mice [1])	activity on colon inflammation (SCID-IBD mice [2]; Compound A alone at doses below 0.5 mg/kg/d)	effect on colon inflammation (severity scores) (SCID-IBD mice [2])	effects on lymphocyte numbers (SCID-IBD mice [3]; Compound A 0.1 mg/kg/d alone)	lymphocyte numbers in single treatment groups (SCID-IBD mice [3])	reduction of serum haptoglobin levels (SCID-IBD mice [4])	% reduction of serum haptoglobin (SCID-IBD mice [4])	inhibition of weight loss (SCID-IBD mice [1]; ASM alone 60 mg/kg/d, daily oral gavage day 1 to 29)	effect on colon inflammation (histology severity score) (SCID-IBD mice [2]; ASM981 60 mg/kg/d alone)	reduction in lymphocyte numbers in MLN (SCID-IBD mice [3]; study 1: ASM 60 mg/kg/d, alone or combined with Compound A 0.1 mg/kg/d)	disease inhibition, single treatment (SCID-IBD mice [5])
CO[C@H]1C[C@@H]2CC[C@@H](C)[C@@](O)(O2)C(=O)C(=O)N2CCCC[C@H]2C(=O)O[C@H]([C@H](C)C[C@@H]2CC[C@@H](OCCO)[C@H](OC)C2)CC(=O)[C@H](C)/C=C(\C)[C@@H](O)[C@@H](OC)C(=O)[C@H](C)C[C@H](C)/C=C/C=C/C=C/1C [Compound A, 40-O-(2-hydroxyethyl)-rapamycin]	only minor effects	not significantly active	very little effect	only weal, if any effects	not reduced	very weakly active	27.4%				
CC[C@@H]1/C=C(\C)C[C@H](C)C[C@H](OC)[C@H]2O[C@@](O)(C(=O)C(=O)N3CCCC[C@H]3C(=O)O[C@H](/C(C)=C/[C@@H]3CC[C@H](Cl)[C@H](OC)C3)[C@H](C)[C@@H](O)CC1=O)[C@H](C)C[C@@H]2OC [ASM, {[1E-(1R,3R,4S)]1R,9S,12S,13R,14S,17R,18E,21S,23S,24R,25S,27R}-12-[2-(4-chloro-3-methoxycyclohexyl)-1-methylvinyl]-17-ethyl-1,14-dihydroxy-23,25-dimethoxy-13,19,21,27-tetramethyl-1,28,dioxa-4-azatricyclo [22.3.1.0(4,9)]octacos-18-ene-2,3,10,16-tetraone]	only minor effects		very little effect		not reduced	potently reduces	32.7%	significant, but low inhibition of weight loss	significant effect	73.5%	significant effects
